Here are results for 82 molecules from PubChem BioAssay AID463206 (Broad Institute, 2010).

The source made the active and inactive calls.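 Rule for the calls: active = caspase luminescence falls with dose and the half-maximal concentration AC50 from the fitted curve is at or below a set limit; inconclusive = flat fit at 30 to 70% signal loss, or invalid fit; inactive = AC50 above the limit, or signal rises instead.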

The test system of the assay is INS-1E cytokine-induced caspase-3/7, Caspase-Glo luminescence, 48 h. Briefly: suppression of cytokine-driven beta-cell apoptosis – INS-1E rat cells, luminescence, orthogonal assay for beta-cell apoptosis protection project, dose response (AID 463206).
For the molecule `CC(C)(C)c1ccc(C(O)CCCN2CCC(C(O)(c3ccccc3)c3ccccc3)CC2)cc1` (configuration not stated), the AC50 (in general, the midpoint of the concentration-response curve, whichever way the signal moves) was > 26 µM (inactive).

As to `CC1Cc2cc(S(=O)(=O)N3CCC(C(=O)N4CCN(c5ccccc5F)CC4)CC3)ccc2N1C(=O)C1CC1` (configuration not stated), the AC50 is > 26 µM (inactive).

As to `CC[C@H](C)Cc1cn([C@@H](CCCCNC(=O)OC(C)(C)C)C(=O)NCCCCCCCCCCC(=O)N2CCN(C(=O)OC(C)(C)C)CC2)nn1`, the AC50 was > 26 µM (inactive).

With `CC(=O)NC(c1ccco1)c1cc(F)c2cccnc2c1O` (configuration not stated), the AC50 is > 26 µM (inactive).

For `S=C(c1cn(CCOc2cccc3ccccc23)c2ccccc12)N1CCCC1`, the AC50 is > 26 µM (inactive).

In the case of `CCCCCCCCCCOC(=O)Cn1c(COc2ccc(OC)cc2)[n+](C)c2ccccc21`, the AC50 was > 26 µM (inactive).

Consider `Cc1ccc(NC(=O)c2cc(S(=O)(=O)NCCC3=CCCCC3)ccc2F)cc1F`, for which the AC50 was > 26 µM (inactive).

For the molecule `Cc1ccc(NS(=O)(=O)c2ccc(Cl)c(NC(=S)NC(=O)C3CCCCC3)c2)cc1Cl`, the AC50 was > 26 µM (inactive).

Consider `CCCCCCOc1ccc(CN2CCN(C)CC2)cc1`, for which the AC50 was > 26 µM (inactive).

As to `CN(C1=C(NC(=O)c2ccccc2)C(=O)c2ccccc2C1=O)C1CCS(=O)(=O)C1` (configuration not stated), the AC50 is > 26 µM (inactive).

For `Cc1ccc(NC(=O)Cn2c(O)c(N=NC(=O)c3cc4ccccc4cc3O)c3ccccc32)cc1`, the AC50 was > 26 µM (inactive).

Regarding `Cc1cc(N2CCN(C)CC2)ccc1NC(=O)c1c2c(nc3ccccc13)CCN(Cc1ccccc1)C2`, the AC50 was 14.7 µM.

In the case of `CCCCC1(Cc2ccc([N+](=O)[O-])cc2)C(=O)N(c2ccccc2)N(c2ccccc2)C1=O`, the AC50 is > 26 µM (inactive).

Turning to `CCCCCCCCNC(C)C(O)c1ccc(SC(C)C)cc1` (configuration not stated), the AC50 is > 26 µM (inactive).

`O=C([O-])c1cc(-c2ccccc2)cc(-c2ccccc2)[n+]1Cc1ccccc1`: the AC50 was > 26 µM (inactive).

For `Cc1ccc(S(=O)(=O)N2CCN(c3ncnc4sccc34)CC2)cc1`, the AC50 was > 26 µM (inactive).

On to `O=S(=O)(Nc1nc2ccccc2s1)c1ccc(Cl)s1`, for which the AC50 is > 26 µM (inactive).

In the case of `Cc1ccc(NC(=O)c2ccccc2NS(=O)(=O)c2ccc(Cl)s2)cc1`, the AC50 is > 26 µM (inactive).

Regarding `Cn1c(-c2ccccc2)cc2c3no[n+]([O-])c3ccc21`, the AC50 was > 26 µM (inactive).

In the case of `Cc1ccc(C(=O)Nc2nc(-c3ccccn3)cs2)cc1S(=O)(=O)N1CCOCC1`, the AC50 was > 26 µM (inactive).

As to `Oc1ccc(Br)cc1-c1cc(-c2ccc(Cl)cc2)n[nH]1`, the AC50 was > 26 µM (inactive).

Take `COc1cc([N+](=O)[O-])ccc1NC(=O)CC1SC(=Nc2ccc(F)cc2)N(CCC2=CCCCC2)C1=O` (configuration not stated): the AC50 was > 26 µM (inactive).

For `COc1ccc(-n2c(-c3ccc(Br)cc3)c[n+]3c2CCc2ccccc2-3)cc1`, the AC50 was > 26 µM (inactive).

On to `COC(=O)c1ccc2c(=O)n(-c3ccccc3)c(SCN3C(=O)c4ccccc4C3=O)nc2c1`, for which the AC50 was > 26 µM (inactive).

`O=C(N/N=C/c1cc(Cl)ccc1O)c1ccc(Br)cc1`: the AC50 was > 26 µM (inactive).

Consider `COc1cccc(CNCCc2c[nH]c3ccccc23)c1OCc1ccccc1F`, for which the AC50 is > 26 µM (inactive).

For the molecule `Cc1ccc2c(c1)Sc1c(ccc3ccccc13)N2`, the AC50 is > 26 µM (inactive).

In the case of `O=C(NNC(=O)c1ccccc1OCc1ccc(F)cc1)c1ccccc1O`, the AC50 is > 26 µM (inactive).

Take `Cc1cc(/C=N/n2cnnc2)c(C)n1-c1ccc(OCc2ccc(Cl)cc2)cc1`: the AC50 is > 26 µM (inactive).

On to `O=C(CCCCC(=O)Nc1ccc(F)cc1F)Nc1ccc(F)cc1F`, for which the AC50 is > 26 µM (inactive).

On to `Oc1ccccc1/C=N/Nc1ncc(Br)cn1`, for which the AC50 is > 26 µM (inactive).

Take `CCOC(=O)C(=CNc1ccc(C(O)(C(=O)OCC)C(F)(F)F)cc1C)C(=O)OCC` (configuration not stated): the AC50 is > 26 µM (inactive).

In the case of `Cc1ccc(-c2cc(-c3ccccc3)cc(-c3ccccc3)[n+]2-c2ccccc2)cc1`, the AC50 is > 26 µM (inactive).

For the molecule `O=S(=O)(c1ccc(Cl)cc1)N1CCN(Cc2ccc(O)c3ncccc23)CC1`, the AC50 is > 26 µM (inactive).

Turning to `CNC[C@@H](Cc1ccccc1)NC[C@@H](CC1CCCCC1)NCCCc1ccccc1`, the AC50 was > 26 µM (inactive).

`COc1ccc(C(=O)N(C)c2ccccc2C(=O)NCCc2ccccc2)cc1`: the AC50 is > 26 µM (inactive).

As to `Cc1c(Cl)c([N+](=O)[O-])nn1Cc1ccc(C(=O)N/N=C\c2cc(Cl)ccc2O)o1`, the AC50 was > 26 µM (inactive).

`COc1ccc(CC(=O)Nc2ccncc2Cl)cc1`: the AC50 was > 26 µM (inactive).

For `Cc1ccc(C(C)C)c(OCC(O)CN2CCc3ccccc3C2)c1` (configuration not stated), the AC50 was > 12 µM (inactive).

Regarding `Cc1ccc(C(=O)N/C(=C\c2ccc(-c3ccccc3[N+](=O)[O-])o2)C(=O)NCCCN2CCOCC2)cc1`, the AC50 is > 26 µM (inactive).

In the case of `Cc1ccccc1N1CCN(Cc2c[nH]c3ccccc23)CC1`, the AC50 is > 26 µM (inactive).

On to `Cc1cc(-n2c(SCC(=O)Nc3ccc(F)c(F)c3)nc3n[nH]c(C)c3c2=N)ccc1Cl`, for which the AC50 was > 26 µM (inactive).

`COc1ccc(CN2CCN(CCSc3ccc(C)cc3)CC2)c(OC)c1OC`: the AC50 was > 26 µM (inactive).

Consider `Cc1ccc(-c2csc(N3CCC(NS(=O)(=O)c4ccc5c(c4)OCCO5)CC3)n2)cc1`, for which the AC50 was > 26 µM (inactive).

For the molecule `O=S(=O)(c1ccc2c(c1)OCCO2)N1CCN(c2ncnc3sccc23)CC1`, the AC50 is > 26 µM (inactive).

With `CC1=C(C)/C(=N\OS(=O)(=O)c2ccccc2)C=CC1=O`, the AC50 was > 26 µM (inactive).

Consider `COc1ccc(-n2c(-c3ccc(Cl)cc3)c[n+]3c2CCc2ccccc2-3)cc1`, for which the AC50 was > 26 µM (inactive).

On to `Cc1ccc(NC2=C/C(=N/S(=O)(=O)c3cccs3)c3ccccc3C2=O)cc1`, for which the AC50 is > 26 µM (inactive).

For the molecule `O=C(Nc1ccc(OCC(=O)N2CCC(Cc3ccccc3)CC2)cc1)c1ccco1`, the AC50 was > 26 µM (inactive).

On to `COc1cc(SC#N)ccc1N=Cc1c(C)[nH]n(-c2ccc(C)cc2)c1=O`, for which the AC50 was > 26 µM (inactive).

Turning to `CC1CC(C)CN(S(=O)(=O)c2ccc(C(=O)NCCCn3ccnc3)cc2)C1` (configuration not stated), the AC50 is > 26 µM (inactive).

As for `O=[N+]([O-])/C=C/c1ccc2c(ccn2Cc2ccccc2)c1`, the AC50 is > 26 µM (inactive).

In the case of `CCCCCc1ccc(OCCCC[n+]2ccccc2)c(CCCCC)c1`, the AC50 was > 26 µM (inactive).

As for `Cc1cc(C)nc(SCc2ccc(C(=O)N/N=C/c3cccc(O)c3O)cc2)n1`, the AC50 is > 26 µM (inactive).

Regarding `Cc1ccc(-n2c(-c3ccccc3)c[n+]3c2CCc2ccccc2-3)c(C)c1`, the AC50 was > 26 µM (inactive).

With `COc1ccc(/C=C/C(=O)NC(=S)Nc2ccccc2C(=O)NC2CCCCC2)cc1`, the AC50 is > 26 µM (inactive).

For `COC(/C(=N/O)c1ccc(Cl)cc1)c1ccccc1` (configuration not stated), the AC50 was > 26 µM (inactive).

Take `CCCCCCCCNc1ncnc2ccccc12`: the AC50 was > 26 µM (inactive).

Consider `COc1cc2c(cc1OC)-c1c(OC)c(OC)c(OC)c3ccnc(c13)C2=O`, for which the AC50 was 7.97 µM.

`COc1ccc(C2=Nn3c([n+](C)c4ccccc43)SC2)cc1`: the AC50 was > 26 µM (inactive).

Consider `CC(=O)c1c(C)[nH]c(C(=O)OCC(=O)Nc2ccc(Cl)cc2[N+](=O)[O-])c1C`, for which the AC50 is > 26 µM (inactive).

In the case of `Cc1ccc(S(=O)(=O)CC2CSc3nc4ccccc4n32)cc1` (configuration not stated), the AC50 was > 12 µM (inactive).

Consider `Cc1ccc(NC(=O)c2c(C(F)(F)F)nn(C)c2SCc2cccc(C(F)(F)F)c2)cc1C`, for which the AC50 is > 26 µM (inactive).

`O=C(Nc1nc2ccc([N+](=O)[O-])cc2s1)c1ccc(S(=O)(=O)N2CCCc3ccccc32)cc1`: the AC50 is > 26 µM (inactive).

Take `CC(C)Oc1ccc(S(=O)(=O)N2CCCCC2)cc1NC(=O)CN1CCCC1c1cccs1` (configuration not stated): the AC50 is > 26 µM (inactive).

As for `CCN(CC)c1ccc(/C=N/NC(=O)c2c(Cl)cnn2C)c(O)c1`, the AC50 was > 26 µM (inactive).

As for `OC(CNC1CCCCC1)COCCOc1ccc(Br)cc1` (configuration not stated), the AC50 is > 12 µM (inactive).

Regarding `COc1ccc(-c2c[n+](CC(=O)OC3CC(C)CCC3C(C)C)c3n2CCC3)cc1` (configuration not stated), the AC50 is > 26 µM (inactive).

As to `CC1=CC(C)(C)N(C(=O)CSc2nnc(-c3ccc(C)cc3)o2)c2ccc(C)cc21`, the AC50 is > 12 µM (inactive).

As for `Cc1cc(C)nc(SCC(=O)Nc2ccnc3ccccc23)n1`, the AC50 was > 26 µM (inactive).

With `O=C(c1cc(-c2cccc(Cl)c2)nc2ccccc12)N1CCN(c2ccccn2)CC1`, the AC50 is > 26 µM (inactive).

On to `O=C(N/N=C/c1cc(Cl)ccc1O)C(=O)Nc1ccccc1OC(F)(F)C(F)F`, for which the AC50 was > 26 µM (inactive).

On to `CNC[C@@H](CC1CCCCC1)NC[C@H](CC(C)C)NCCc1cccc(C(F)(F)F)c1`, for which the AC50 was > 26 µM (inactive).

For the molecule `Oc1ccc(CNc2ccccc2)c2cccnc12`, the AC50 was > 26 µM (inactive).

Turning to `Cc1ccc(C)n1-c1ccc(C(=O)Nc2ccccc2)cc1`, the AC50 is > 26 µM (inactive).

On to `O=C(N/N=C/c1ccccc1O)C1CC(=O)N(c2ccc(Cl)cc2)C1` (configuration not stated), for which the AC50 was > 26 µM (inactive).

Regarding `O=C(CSc1nnc(Cn2nnc3ccccc32)o1)N(Cc1ccc(Cl)cc1)c1ccccc1`, the AC50 is > 26 µM (inactive).

As for `CCn1c(=NC(=O)c2ccc(S(=O)(=O)N3CCOCC3)cc2)sc2cccc(OC)c21`, the AC50 is > 26 µM (inactive).

Consider `O=C(Nc1ccc(-c2nc3ccccc3o2)cc1)c1ccc(N2CCOCC2)c([N+](=O)[O-])c1`, for which the AC50 is > 26 µM (inactive).

With `CC(C)OCCCNC(=S)N1CCC(C(=O)c2ccc(Cl)cc2)CC1`, the AC50 was > 26 µM (inactive).

Regarding `Cc1cc(/C=C2/SC(=S)N(c3ccc([N+](=O)[O-])cc3)C2=O)c(C)n1-c1cccnc1`, the AC50 is > 26 µM (inactive).

On to `CC(C)(C)c1nnc(N/N=C/c2cc(Br)ccc2O)n(N)c1=O`, for which the AC50 was > 26 µM (inactive).
